In paper PMC7584622, “Sensing of autoinducer-2 by functionally distinct receptors in prokaryotes” (Nature Communications, 2020):
Several values for one entry are separate records, joined by “and”; a condition that tells them apart may be missing. Equal values may be shown once.

What was measured:
PctA-LBD = target: T1, PctA-LBD (Pseudomonas aeruginosa, UniProt G3XD24); experiment: ITC binding to PctA-LBD; set-up: species or system P. aeruginosa; details: 700 μM DPD/AI-2 into 70 μM PctA-LBD (WT); 20 °C; normal conditions; mean ± s.d. of three in text/figure, single experiments in source data
T1 construct: Amino acids 30-278 and 36-360 of PctA and TlpQ, respectively; His6 (N, cleaved yes); made in house; host or cells: E. coli BL21(DE3) (pET-28a derivative)

PctB-LBDE146D = target: T2, PctB-LBDE146D (Pseudomonas aeruginosa, UniProt Q9HW91, E146D); experiment: biochemical; assay type: binding; details: 700 μM DPD/AI-2 into 70 μM PctB-LBD E146D
T2 construct: the dCACHE-type LBDs of PctB and PctC; His6 (N, cleaved yes); made in house; host or cells: E. coli BL21(DE3) (pET-28a derivative)

PctA-LBD M111A = target: T3, PctA-LBD M111A (Pseudomonas aeruginosa, UniProt G3XD24, M111A); experiment: biochemical; assay type: binding; details: PctA-LBD M111A 70 μM; DPD/AI-2 700 μM
T3 construct: Amino acids 30-278 and 36-360 of PctA and TlpQ, respectively; His6 (N, cleaved yes); made in house; host or cells: E. coli BL21(DE3) (pET-28a derivative)

KinD = target: T4, KinD (Bacillus subtilis, UniProt O31671); experiment: in vitro kinase assay, KinD autophosphorylation (LC-MS/MS); assay type: biochemical, B. subtilis; details: 100 μM ATP, 30 min, 30 °C
T4 construct: The genes encoding full-length KinD and rpHK1S-Z16 were cloned with a C-terminal His6 tag into pHSe5; made in house; host or cells: E. coli BL21(DE3) ΔluxS (pHSe5), membrane fractions
Description: Twenty micrograms of membrane fractions containing KinD was preincubated in a 50-μl reaction system containing 50 mM Tris-HCl (pH 7.8), 2 mM DTT, 25 mM NaCl, 25 mM KCl, 5 mM MgCl2 for 10 min at 30 °C. […] A control experiment was performed without ATP to check the initial phosphorylation state of KinD. After 30 min incubation at 30 °C, products were resolved by SDS-PAGE, and the gel bands corresponding to KinD were excised and used for detection and quantification of phosphorylation by nano-LC-MS/MS.
Gel slices excised from SDS-PAGE gels were destained with three washes in 100 μl of 100 mM ammonium bicarbonate in 50% acetonitrile at 37 °C for 15 min. Destained gel pieces were dried in a SpeedVac (Thermo Fisher Scientific) for 15 min. 10 mM DTT in 25 mM ammonium bicarbonate was added to cover the gel pieces and incubated at 56 °C for 1 h. […] The dried peptide samples were resolubilized in 0.1% formic acid and analyzed in C18 reversed-phase column connected to an EASY-nLC 1000 interfaced via a Nanospray Flex ion source to an Orbitrap Fusion Tribrid mass spectrometer (Thermo Fisher Scientific). […] Protein identification and quantification were performed using Mascot Daemon version 2.5.1 (Matrix Science, Boston, USA) considering the specific modifications.

rpHK1S-Z16 = experiment: in vitro DGC activity assay, c-di-GMP synthesis (HPLC); assay type: biochemical, R. palustris; details: 100 μM GTP, 30 °C
Description: The DGC activity of rpHK1S-Z16 was determined by measuring the synthesis of c-di-GMP using an HPLC-based method. […] The reaction was initiated by adding 100 μM GTP and the reaction was allowed to proceed for 0, 30 and 60 min at 30 °C. At indicated time points, 50 μl aliquots were removed and heated at 100 °C for 5 min. Denatured proteins were removed through centrifugation and the supernatants were filtered through a 0.22 μm membrane. Samples were injected into an HPLC (Agilent 1260 infinity II) system equipped with a C18 reversed-phase column and a UV detector. Components were eluted isocratically with 98% A (150 mM Na2HPO4, pH 5.2) and 2% B (acetonitrile) in 15 min at a flow rate of 1 ml min^−1. The detection wavelength was 252 nm. GTP (Sigma, Cat# G8877) and c-di-GMP (Sigma, Cat# SML1228) were run as standards. The levels of synthesized c-di-GMP in the supernatants were determined from the standard curve obtained using known concentrations of c-di-GMP.

LuxP = target: LuxP; set-up: method as in PMID 18215018; details: established receptor LuxP; cited from earlier work
LsrB = details: established receptor LsrB; cited from earlier work
P. aeruginosa PAO1 = experiment: quantitative capillary chemotaxis assay

T1 sequence (G3XD24 30-278): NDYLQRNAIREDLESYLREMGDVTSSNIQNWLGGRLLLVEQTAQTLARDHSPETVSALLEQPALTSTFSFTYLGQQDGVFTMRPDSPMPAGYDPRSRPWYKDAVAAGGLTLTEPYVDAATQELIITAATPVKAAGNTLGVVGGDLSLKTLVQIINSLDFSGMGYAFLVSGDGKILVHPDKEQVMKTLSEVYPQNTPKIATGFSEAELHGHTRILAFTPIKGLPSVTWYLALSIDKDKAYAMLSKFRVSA
T2 sequence (Q9HW91 32-276 E146D): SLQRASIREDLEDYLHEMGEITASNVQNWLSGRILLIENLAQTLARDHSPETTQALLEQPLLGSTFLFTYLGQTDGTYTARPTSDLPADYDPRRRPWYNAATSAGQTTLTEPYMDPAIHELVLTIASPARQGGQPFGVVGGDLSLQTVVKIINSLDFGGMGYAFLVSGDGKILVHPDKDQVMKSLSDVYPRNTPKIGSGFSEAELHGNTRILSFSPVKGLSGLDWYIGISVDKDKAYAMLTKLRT
T3 sequence (G3XD24 30-278 M111A): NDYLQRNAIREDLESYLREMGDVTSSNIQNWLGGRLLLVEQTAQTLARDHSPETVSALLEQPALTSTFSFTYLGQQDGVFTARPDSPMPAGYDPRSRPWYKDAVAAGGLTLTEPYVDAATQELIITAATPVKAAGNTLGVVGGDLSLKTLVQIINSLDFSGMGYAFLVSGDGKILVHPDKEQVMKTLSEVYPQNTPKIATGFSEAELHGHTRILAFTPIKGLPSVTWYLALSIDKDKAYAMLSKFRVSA
T4 sequence (O31671 whole entry): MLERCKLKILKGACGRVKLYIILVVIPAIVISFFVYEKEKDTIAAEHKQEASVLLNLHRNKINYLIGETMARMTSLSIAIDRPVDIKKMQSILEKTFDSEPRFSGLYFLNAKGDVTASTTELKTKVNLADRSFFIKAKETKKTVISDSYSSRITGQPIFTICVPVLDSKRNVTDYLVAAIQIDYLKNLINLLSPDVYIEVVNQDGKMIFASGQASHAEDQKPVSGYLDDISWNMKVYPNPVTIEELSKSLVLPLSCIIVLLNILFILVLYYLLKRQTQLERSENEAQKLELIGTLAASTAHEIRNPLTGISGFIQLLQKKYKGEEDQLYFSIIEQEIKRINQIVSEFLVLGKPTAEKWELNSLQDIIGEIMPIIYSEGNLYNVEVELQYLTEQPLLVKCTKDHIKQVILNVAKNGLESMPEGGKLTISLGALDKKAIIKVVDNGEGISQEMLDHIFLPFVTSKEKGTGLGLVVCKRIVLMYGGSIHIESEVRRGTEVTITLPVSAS

SMILES: CC(=O)C(=O)C(O)CO (stereo not drawn) [DPD/AI-2, 4,5-dihydroxy-2,3-pentanedione]
- Kd (PctA-LBD): 120 nM and 160 nM and 130 nM
- Kd (PctB-LBDE146D): 220 nM and 270 nM and 230 nM
- Kd (PctA-LBD M111A): 14000 nM and 21000 nM and 17000 nM
- Phosphorylation level (%) of KinD (KinD; 10 μM DPD/AI-2): 27.45% and 24.59% and 21.92% and 23.68%
- Phosphorylation level (%) of KinD (KinD; 50 μM DPD/AI-2): 49.23% and 54.72% and 52.70% and 57.14%
- Concentration of c-di-GMP (rpHK1S-Z16; 100 μM DPD/AI-2, 30 min): 25.52 µM and 26.85 µM and 25.80 µM
- Concentration of c-di-GMP (rpHK1S-Z16; 100 μM DPD/AI-2, 60 min): 33.20 µM and 34.39 µM and 33.48 µM
- Concentration of c-di-GMP (rpHK1S-Z16; 200 μM DPD/AI-2, 30 min): 34.46 µM and 32.43 µM and 32.71 µM
- Concentration of c-di-GMP (rpHK1S-Z16; 200 μM DPD/AI-2, 60 min): 45.28 µM and 43.18 µM and 41.92 µM
- Kd (LuxP): 160 nM
- Kd (LsrB): 190 to 810 nM
- Cells per capillary (P. aeruginosa PAO1; 1 μM DPD/AI-2, PAO1, 30 min, buffer capillary subtracted): 3700 and 4300 and 4700 and 2900 and 5300
- Cells per capillary (P. aeruginosa PAO1; 10 μM DPD/AI-2, PAO1, 30 min, buffer capillary subtracted): 9900 and 11300 and 14200 and 11400 and 10800
- Cells per capillary (P. aeruginosa PAO1; 100 μM DPD/AI-2, PAO1, 30 min, buffer capillary subtracted): 30800 and 31500 and 39700 and 42100 and 39200
- Cells per capillary (P. aeruginosa PAO1; 1000 μM DPD/AI-2, PAO1, 30 min, buffer capillary subtracted): 23500 and 25700 and 24700 and 27800 and 19800
- concentration of optimal chemotactic response (P. aeruginosa PAO1; P. aeruginosa PAO1, capillary, 30 min): 100 µM
- Cells per capillary (P. aeruginosa PAO1; strain ΔPA1608, 100 μM DPD/AI-2, Fig. 1d): 37200 and 36700 and 39700 and 37700 and 35300
- Cells per capillary (P. aeruginosa PAO1; strain ΔPA1646, 100 μM DPD/AI-2, Fig. 1d): 37700 and 38800 and 33600 and 35400 and 35300
- Cells per capillary (P. aeruginosa PAO1; strain ΔPA2573, 100 μM DPD/AI-2, Fig. 1d): 39200 and 34600 and 39900 and 36000 and 39600
- Cells per capillary (P. aeruginosa PAO1; strain ΔPA2652, 100 μM DPD/AI-2, Fig. 1d): 38500 and 34500 and 34200 and 36900 and 36500
- Cells per capillary (P. aeruginosa PAO1; strain ΔPA2788, 100 μM DPD/AI-2, Fig. 1d): 33800 and 38800 and 38900 and 36100 and 38600
- Cells per capillary (P. aeruginosa PAO1; strain ΔPA2867, 100 μM DPD/AI-2, Fig. 1d): 38500 and 34300 and 34100 and 37600 and 33900
- Cells per capillary (P. aeruginosa PAO1; strain ΔPA2920, 100 μM DPD/AI-2, Fig. 1d): 36800 and 33100 and 39300 and 35100
- Cells per capillary (P. aeruginosa PAO1; strain ΔPA4290, 100 μM DPD/AI-2, Fig. 1d): 35800 and 35100 and 37600 and 35000 and 38600
- Cells per capillary (P. aeruginosa PAO1; strain ΔPA4520, 100 μM DPD/AI-2, Fig. 1d): 33900 and 37400 and 33500 and 36700
- Cells per capillary (P. aeruginosa PAO1; strain ΔPA4633, 100 μM DPD/AI-2, Fig. 1d): 35700 and 39100
- Cells per capillary (P. aeruginosa PAO1; strain Δaer, 100 μM DPD/AI-2, Fig. 1d): 36600 and 36200 and 39600 and 36400 and 37100
- Cells per capillary (P. aeruginosa PAO1; strain ΔctpH, 100 μM DPD/AI-2, Fig. 1d): 38900 and 35200 and 37100 and 35400 and 36800
- Cells per capillary (P. aeruginosa PAO1; strain ΔmcpS, 100 μM DPD/AI-2, Fig. 1d): 36800 and 35200 and 37500 and 35600 and 39600
- Cells per capillary (P. aeruginosa PAO1; strain ΔpctA, 100 μM DPD/AI-2, Fig. 1d): 21400 and 23800 and 20800 and 21700 and 21800
- Cells per capillary (P. aeruginosa PAO1; strain ΔpctB, 100 μM DPD/AI-2, Fig. 1d): 37100 and 39500 and 37300 and 38300 and 35300
- Cells per capillary (P. aeruginosa PAO1; strain ΔpctC, 100 μM DPD/AI-2, Fig. 1d): 35300 and 37100 and 37200 and 36800 and 35800
- Cells per capillary (P. aeruginosa PAO1; strain ΔtlpQ, 100 μM DPD/AI-2, Fig. 1d): 26100 and 28500 and 25300 and 27300 and 24300
